From publication PMC12356476, “Transferrin conjugated pH/NIR-responsive black phosphorus nanoplatform: A novel multimodal approach for breast cancer theranostics” (International Journal of Pharmaceutics: X, 2025)
≈ marks a conversion by molar mass, not a printed value.

Tests used:
[1] = tested on: 4 T1 cells; test: MTT cytotoxicity assay without irradiation; format: cell-based, murine; settings: 4 T1 tumour cellular toxicity after 48 h
Experimental: The 4 T1 cell line, a murine breast tumour cell line derived from BALB/cf3H mice, was obtained from Elabsciences, Inc. The cytotoxicity of BP-based nanoformulation were evaluated using MTT assay. […] After 48 h, media was discarded and added with 50 μL of MTT reagent (2 mg/ml). The samples were then kept for 4 h of incubation and added with 50 μL DMSO to solubilize the formazan crystals. OD (optical density) was evaluated at 540 nm in a microplate reader (ELx800). Absorbance data were observed, and percentage tumour cell growth inhibition was measured using the following formula: Percentage growth inhibition=Absorbance of Blank−Absorbance of test/Absorbance of BlankX100

[2] = tested on: 4 T1 cells; test: In vitro PTT study (MTT with 808 nm NIR irradiation); format: cell-based, murine; settings: 4 T1 tumour cellular toxicity after 48 h; 808 nm laser 1.0 W/cm^2 for 10 min
Experimental: Based on the results of cytotoxicity in 4 T1 cells produced by the test compounds, five concentrations were selected (100, 10, 1, 0.1, 0.001) to evaluate the extent of cytotoxicity in the presence of NIR radiation of 808 nm. 4 T1 cell line was seeded and incubated for 24 h. After refreshing the medium, the wells were added with samples at 37 °C for 4 h, and irradiated with 808 nm laser (1.0 W/cm^2) for 10 mins incubated till 48 h ([Phan et al., 2017]; [Xu et al., 2021]).
Absorbance data were observed, and percentage tumour cell growth inhibition was measured using the following formula: Percentage growth inhibition=Absorbance of Blank−Absorbance of test/Absorbance of BlankX100

[3] = tested on: 4 T1 cells; test: Cellular uptake by flow cytometry; format: cell-based, murine; settings: ~5 μg/mL, no irradiation
Experimental: To understand the cellular uptake of nanoformulations, flow cytometry was employed. 4 T1 cells were seeded into 6-well plates and allowed to adhere for 24 h prior to treatment. […] Followed by the removal of culture medium after 2 h of treatment, test samples were added, and the laser groups were exposed to NIR-II 808 nm laser for 5 min and kept in incubator for 2 h. The plates were taken and added with trypsin for the detachment of 4 T1 cells. It was then collected, centrifuged to separate free DOX and BP-based nanoformulation, and analyzed using a flow cytometer (BD Accuri). Untreated 4 T1 cells were used as a control group.

[4] = tested on: chorioallantoic membrane (CAM) of fertilized chicken eggs; test: Chorioallantoic membrane (CAM) assay; format: in vivo; settings: 200 μL applied on day 8, observed at 8 and 24 h; DOX equivalent 200 μg
Experimental: The CAM assay is a method used to assess the effects of chemical agents/formulations on the developing, highly vascularized CAM. Fertilized chicken eggs were obtained, disinfected with 70 % ethanol, and incubated in a humidified environment. The eggs were kept horizontal and regularly rotated. […] Lenalidomide was considered as positive and normal saline (NS) as negative control. Following application, the egg's cavity was resealed with scotch tape and returned to the incubator. Changes in the blood vessel morphology were examined at 8 and 24 h after incubation ([Raychaudhuri et al., 2021]).

[5] = tested on: 4 T1-breast tumour bearing BALB/c mice; test: Pharmacodynamic study (antitumour efficacy); format: in vivo; settings: i.v., 5 mg/kg eq. to DOX, 14 days
Experimental: Female BALB/c mice were given a subcutaneous injection of 4 T1 cells (1.5 × 10^6 cells) in 100 μL of cold PBS, into the dorsal flank. The breast tumour appeared in 10–14 days while the mice were under close observation. Using a vernier caliper, the length and width were measured, and the tumour volume was measured. When the tumour volume reached about 75 to 100 mm^3, the mice were grouped randomly to 10 groups (n = 3):
Group I: Saline (i v injection).
Group II: Saline + NIR (i v injection).
Group III: BPNSs (Dose: 5 mg/Kg) (i v injection).
Group IV: BPNSs + NIR (Dose: 5 mg/Kg) (i v injection).
After 2 h of injection, the laser irradiation groups were exposed to 808 nm NIR laser (1 W/cm^2) for 5 min. The starting day of the treatment was considered as 0th day and checked for body weight in every day and tumour volume in every 2 days. The following equation was used for the measurement of tumour volume (V): Volumemm^3=Width^2XLength/2
(§1) On the last day of the treatment (Day 14), the BALB/c mice were euthanized by cervical dislocation and major organs were collected, washed and fixed with 4 % paraformaldehyde for Hematoxylin and Eosin (H&E) staining.

[6] = tested on: 4 T1-breast tumour bearing BALB/c mice; test: Histopathological analysis (H&E) of tumour tissues and other organs; format: in vivo; parameters: key to Tumour cells / Necrosed area / Malignant features like nuclear pleomorphism, hyperchromatism / inflammation / Muscle invasion: -: Nil; + few; ++ Many; +++ Abundant; settings: for Malignant features like nuclear pleomorphism, hyperchromatism / Mitotic count/10HPF / Muscle invasion / Necrosed area / Tumour cells / inflammation: tumour tissue, 14 days
Experimental: as §1
Three BALB/c mice from each group were sacrificed after 14 days of treatment. The tissues (liver, spleen, lung, heart, kidney, and breast tumour) were isolated and fixed with 10 % formalin for 24 to 48 h. The tissue slides were examined using the LX-500 LED trinocular Research microscope, and pictures were captured using the MiaCam CMOS AR 6pro microscope camera coupled to image AR pro software. The slides were graded according to tumour cells, necrosed areas, malignant features like nuclear pleomorphism and hyperchromatism, inflammation, muscle invasion and mitotic count counted in 10 consecutive high-power fields (HPFs).

[7] = tested on: 4T1 tumour bearing BALB/c mice; test: Blood (haematological) parameters estimation; format: in vivo
Experimental: A total of about 100 μL of blood was collected from the retroorbital route and collected into a tube with 10 μL of EDTA for a complete blood count such as RBC, WBC, platelets and hemoglobin analysis using Nihon Kohden blood analyzer (celltac alpha-MEK-6550, India).

[8] = tested on: 4 T1-breast tumour bearing BALB/c mice; test: Biodistribution study by in vivo fluorescence imaging; settings: i.v., imaging 0.5 to 36 h post-injection
Excerpt: In vivo biodistribution study of plain DOX, and BP-DOX@PDA-TF were monitored with an in vivo imaging system. […] Using IVIS® containing 620 nm and 780 nm filters respectively for excitation and emission, tumour accumulation trends were examined across various time periods following injection.

[9] = In vivo pharmacokinetics after i.v. injection; settings: 5 mg/kg DOX equivalent, BALB/c mice, plasma, Mean ± SD, n = 3
Experimental: Female BALB/c mice (6–8 weeks old, 18–25 g) were obtained from a certified animal supplier and used for the study. Prior to the start of the experiment, all animals were housed under standard laboratory conditions (12-h light/dark cycle, temperature 22 ± 2 °C, relative humidity 50–60 %) with ad libitum access to food and water. A two-week acclimatization period was provided to allow the animals to adjust to the laboratory environment. […] Mice were randomly assigned to experimental groups (n = 3 per group), and all efforts were made to minimize suffering. The allocation and data collection were conducted in a blinded manner wherever applicable. No animals were excluded from the analysis unless stated otherwise.
Blood sample was collected in EDTA solution containing tubes at intervals ranging from 5 min to 48 h post-administration and then centrifuged to separate the plasma ([Zeng et al., 2019]).

[10] = after 14 days of treatment and NIR Irradiation
[11] = after 14 days of treatment, no NIR irradiation

## COc1cccc2c1C(=O)c1c(O)c3c(c(O)c1C2=O)C[C@@](O)(C(=O)CO)C[C@@H]3O[C@H]1C[C@H](N)[C@H](O)[C@H](C)O1 [DOX, Doxorubicin]
[1]
  IC50 value, Non NIR Irradiated: 2.84 µg/mL (≈ 5.23 µM)
[2]
  IC50 value, NIR Irradiated: 1.58 µg/mL (≈ 2.91 µM)
[3]
  cellular uptake (DOX fluorescence intensity): greater fluorescence intensity than BP-based NPs
[4]
  toxicity to the CAM (coagulation, hemorrhage, vascular morphology, embryotoxicity): notable sign of toxicity such as coagulation, bleeding, and embryo toxicity
[5]
  breast tumour growth suppression: failed to efficiently suppress the breast tumour growth
[6]; H&E, 14 days of treatment
  liver pathology: severe hypertrophy and liver congestion
[6]; NIR irradiated
  Malignant features like nuclear pleomorphism, hyperchromatism: +++
  Mitotic count/10HPF: 23 /10HPF
  Muscle invasion: -
  Necrosed area: +++
  Tumour cells: +++
  inflammation: -
[6]; NIR non-irradiated
  Malignant features like nuclear pleomorphism, hyperchromatism: ++
  Mitotic count/10HPF: 4 /10HPF
  Muscle invasion: -
  Necrosed area: -
  Tumour cells: +
  inflammation: +++
[7]; [10]
  HCT: 46.76±4.31%
  HGB: 13.88 ± 1.28 g/dL
  MCH: 16.35 ± 1.51 pg
  MCV: 50.93 ± 3.10 fL
  MPV: 6.39 ± 0.59 fL
  PDW: 14.34 ± 1.32 fL
  PLT: 924.2±85.27 ×10^3/µL
  RBC: 7.8±1.31 ×10^6/µL
  RDW‐CV: 13.61±1.26%
  RDW‐SD: 35.71 ± 3.29 fL
  WBC: 8.77±0.81 10^3/µL
[7]; [11]
  HCT: 42.69±4.36%
  HGB: 14.57 ± 0.42 g/dL
  MCH: 16.27 ± 1.64 pg
  MCV: 52.77 ± 4.81 fL
  MPV: 6.37 ± 1.21 fL
  PDW: 14.77 ± 2.06 fL
  PLT: 940±75.19 ×10^3/µL
  RBC: 9.39±1.2 ×10^6/µL
  RDW‐CV: 13.77±0.38%
  RDW‐SD: 38.17 ± 3.09 fL
  WBC: 9.73±1.5 10^3/µL
[8]
  fluorescence signal of DOX at the tumour region: significantly reduced signal
[9]
  AUC(0-t): 2976.15 ± 1191.277 ng·h/mL
  AUC(0-∞): 3168.98 ± 1086.246 ng·h/mL
  Cmax: 469.73 ± 93.78 ng/mL
  Ke: 0.141 ± 0.05 h⁻¹
  T max: 4.98 ± 0 min
  t1/2: 5.47 ± 2.15 h
